This note sets out measurements from patent publication US20260055103A1, “2,3,4,9-TETRAHYDRO-1H-PYRIDO[3,4-B]INDOLE DERIVATIVES AS ESTROGEN RECEPTOR MODULATORS FOR THE TREATMENT OF CANCER” (Olema Pharmaceuticals, Inc., priority 2022, published 2026).

For the experiment, the target named is T1, estrogen receptor (Homo sapiens, UniProt P03372).
T1 construct: endogenous in cells; host or cells: ECC-1 cells
T1 sequence (P03372 1-595): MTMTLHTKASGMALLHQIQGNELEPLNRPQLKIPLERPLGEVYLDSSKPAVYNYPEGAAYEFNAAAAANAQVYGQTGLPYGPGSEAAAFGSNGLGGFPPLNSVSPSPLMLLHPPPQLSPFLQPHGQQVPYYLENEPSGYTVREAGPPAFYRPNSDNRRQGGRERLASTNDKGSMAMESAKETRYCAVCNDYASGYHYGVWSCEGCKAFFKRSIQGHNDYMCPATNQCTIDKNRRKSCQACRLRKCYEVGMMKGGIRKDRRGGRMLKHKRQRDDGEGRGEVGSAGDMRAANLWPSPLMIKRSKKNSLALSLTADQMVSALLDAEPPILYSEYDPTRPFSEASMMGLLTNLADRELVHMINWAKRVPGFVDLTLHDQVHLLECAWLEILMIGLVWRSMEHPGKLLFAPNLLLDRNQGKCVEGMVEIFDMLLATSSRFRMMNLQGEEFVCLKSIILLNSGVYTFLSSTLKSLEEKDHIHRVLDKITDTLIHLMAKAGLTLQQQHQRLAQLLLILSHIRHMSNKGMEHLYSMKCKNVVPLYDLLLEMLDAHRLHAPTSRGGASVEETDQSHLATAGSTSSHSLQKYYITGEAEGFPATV
Kind of experiment: Alkaline phosphatase (AP) assay in ECC-1 cells, agonist mode (no E2) and antagonist mode (500 pM E2). Format: cell-based. To be noted: 3 days, AP activity normalized to 500 pM E2 alone, agonist mode without E2, antagonist mode with 500 pM E2. The procedure, abridged: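 ECC-1 cells in hormone-depleted medium treated 3 days with compound alone (agonist mode) or with 500 pM E2 (antagonist mode). Alkaline phosphatase read by p-nitrophenyl phosphate hydrolysis, 40 min at 42° C, A405. Activity normalized to 500 pM E2 alone.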
Regarding `C[C@@H]1Cc2c([nH]c3ccccc23)[C@@H](c2cnc(C[C@@H]3CCN(CCCF)C3)s2)N1CC(F)F` [Example I-41, 5-[(1S,3R)-2-(2,2-difluoroethyl)-3-methyl-1,3,4,9-tetrahydropyrido[3,4-b]indol-1-yl]-2-[[(3S)-1-(3-fluoropropyl)pyrrolidin-3-yl]methyl]thiazole], the “Activity (estrogen receptor modulation, agonism and antagonism)” value (“Activity” below) was “++ (estrogen receptor antagonism having (i) between 10% and 80% increase in the E2-normalized signal in the AP assay (agonist mode) and (ii) between 10% and 80% reduction in the E2-normalized signal in the AP assay (antagonist mode))”.
The same measure for `C[C@@H]1Cc2c([nH]c3ccccc23)[C@@H](c2cnc(C[C@@H]3CCN(CCCF)C3)s2)N1CC(F)(F)CO` [Example I-42]: “++ (estrogen receptor antagonism having (i) between 10% and 80% increase in the E2-normalized signal in the AP assay (agonist mode) and (ii) between 10% and 80% reduction in the E2-normalized signal in the AP assay (antagonist mode))”.
As for `C[C@@H]1Cc2c([nH]c3ccccc23)[C@@H](c2cnc(C[C@@H]3CCN(CCCF)C3)s2)N1CC(C)(C)F` [Example I-43], the “Activity” value is “++ (estrogen receptor antagonism having (i) between 10% and 80% increase in the E2-normalized signal in the AP assay (agonist mode) and (ii) between 10% and 80% reduction in the E2-normalized signal in the AP assay (antagonist mode))”.
As for `C[C@@H]1Cc2c([nH]c3ccccc23)[C@@H](c2ncc(CC3CN(CCCF)C3)s2)N1CC(F)(F)CO` [Example I-44, 2,2-difluoro-3-[(1S,3R)-1-[5-[[1-(3-fluoropropyl)azetidin-3-yl]methyl]thiazol-2-yl]-3-methyl-1,3,4,9-tetrahydropyrido[3,4-b]indol-2-yl]propan-1-ol], the “Activity” value was “++ (estrogen receptor antagonism having (i) between 10% and 80% increase in the E2-normalized signal in the AP assay (agonist mode) and (ii) between 10% and 80% reduction in the E2-normalized signal in the AP assay (antagonist mode))”.
The value for `CCCN1CC[C@@H](Cc2ncc([C@@H]3c4[nH]c5ccccc5c4C[C@@H](C)N3CC(F)F)s2)C1` [Example I-45, 5-[(1S,3R)-2-(2,2-difluoroethyl)-3-methyl-1,3,4,9-tetrahydropyrido[3,4-b]indol-1-yl]-2-[[(3S)-1-propylpyrrolidin-3-yl]methyl]thiazole] was “+ (estrogen receptor agonism having (i) at least 80% increase in the E2-normalized signal in the AP assay (agonist mode) and (ii) no more than 80% reduction in the E2-normalized signal in the AP assay (antagonist mode))”; that for `CCCN1CC[C@@H](Cc2ncc([C@@H]3c4[nH]c5ccccc5c4C[C@@H](C)N3CC(F)(F)CO)s2)C1` [Example I-46, 2,2-difluoro-3-((1S,3R)-3-methyl-1-(2-(((S)-1-propylpyrrolidin-3-yl)methyl)thiazol-5-yl)-1,3,4,9-tetrahydro-2H-pyrido[3,4-b]indol-2-yl)propan-1-ol] was “++ (estrogen receptor antagonism having (i) between 10% and 80% increase in the E2-normalized signal in the AP assay (agonist mode) and (ii) between 10% and 80% reduction in the E2-normalized signal in the AP assay (antagonist mode))”; that for `CCCN1CC[C@@H](Cc2ncc([C@@H]3c4[nH]c5ccccc5c4C[C@@H](C)N3CC(C)(C)F)s2)C1` [Example I-47] was “+ (estrogen receptor agonism having (i) at least 80% increase in the E2-normalized signal in the AP assay (agonist mode) and (ii) no more than 80% reduction in the E2-normalized signal in the AP assay (antagonist mode))”.
The same measure for `C[C@@H]1Cc2c([nH]c3ccccc23)[C@@H](c2cnc(C[C@@H]3CCN(CCCF)C3)s2)N1CC(F)(F)F` [Example I-48, 2-[[(3S)-1-(3-fluoropropyl)pyrrolidin-3-yl]methyl]-5-[(1S,3R)-3-methyl-2-(2,2,2-trifluoroethyl)-1,3,4,9-tetrahydropyrido[3,4-b]indol-1-yl]thiazole]: “++ (estrogen receptor antagonism having (i) between 10% and 80% increase in the E2-normalized signal in the AP assay (agonist mode) and (ii) between 10% and 80% reduction in the E2-normalized signal in the AP assay (antagonist mode))”; for `CCCN1CC[C@@H](Cc2ncc([C@@H]3c4[nH]c5ccccc5c4C[C@@H](C)N3CC(F)(F)F)s2)C1` [Example I-49, 5-[(1S,3R)-3-methyl-2-(2,2,2-trifluoroethyl)-1,3,4,9-tetrahydropyrido[3,4-b]indol-1-yl]-2-[[(3S)-1-propylpyrrolidin-3-yl]methyl]thiazole]: “+ (estrogen receptor agonism having (i) at least 80% increase in the E2-normalized signal in the AP assay (agonist mode) and (ii) no more than 80% reduction in the E2-normalized signal in the AP assay (antagonist mode))”.
For the molecule `CCCN1CC(Cc2cnc([C@@H]3c4[nH]c5ccccc5c4C[C@@H](C)N3CC(F)(F)CO)s2)C1` [Example I-50, 2,2-difluoro-3-[(1S,3R)-3-methyl-1-[5-[(1-propylazetidin-3-yl)methyl]thiazol-2-yl]-1,3,4,9-tetrahydropyrido[3,4-b]indol-2-yl]propan-1-ol], the “Activity” value was “++ (estrogen receptor antagonism having (i) between 10% and 80% increase in the E2-normalized signal in the AP assay (agonist mode) and (ii) between 10% and 80% reduction in the E2-normalized signal in the AP assay (antagonist mode))”.
On to `C[C@@H]1Cc2c([nH]c3ccccc23)[C@@H](c2cnc(C[C@@H]3CCN(CCC(F)F)C3)s2)N1CC(C)(C)F` [Example I-51, 2-[[(3S)-1-(3,3-difluoropropyl)pyrrolidin-3-yl]methyl]-5-[(1S,3R)-2-(2-fluoro-2-methyl-propyl)-3-methyl-1,3,4,9-tetrahydropyrido[3,4-b]indol-1-yl]thiazole], for which the “Activity” value is “+ (estrogen receptor agonism having (i) at least 80% increase in the E2-normalized signal in the AP assay (agonist mode) and (ii) no more than 80% reduction in the E2-normalized signal in the AP assay (antagonist mode))”.
`C[C@@H]1Cc2c([nH]c3ccccc23)[C@@H](c2nnc(CC3CN(CCCF)C3)s2)N1CC(C)(C)F` [Example I-52, 2-((1S,3R)-2-(2-fluoro-2-methylpropyl)-3-methyl-2,3,4,9-tetrahydro-1H-pyrido[3,4-b]indol-1-yl)-5-((1-(3-fluoropropyl)azetidin-3-yl)methyl)-1,3,4-thiadiazole]: the “Activity” value is “++ (estrogen receptor antagonism having (i) between 10% and 80% increase in the E2-normalized signal in the AP assay (agonist mode) and (ii) between 10% and 80% reduction in the E2-normalized signal in the AP assay (antagonist mode))”.
Regarding `COCCCN1CC(Cc2ccc([C@@H]3c4[nH]c5ccccc5c4C[C@@H](C)N3CC(F)(F)CO)s2)C1` [Example I-53, 2,2-difluoro-3-[(1S,3R)-1-[5-[[1-(3-methoxypropyl)azetidin-3-yl]methyl]-2-thienyl]-3-methyl-1,3,4,9-tetrahydropyrido[3,4-b]indol-2-yl]propan-1-ol], the “Activity” value was “++ (estrogen receptor antagonism having (i) between 10% and 80% increase in the E2-normalized signal in the AP assay (agonist mode) and (ii) between 10% and 80% reduction in the E2-normalized signal in the AP assay (antagonist mode))”.
On to `COCCCN1CC(Cc2ccc([C@@H]3c4[nH]c5ccccc5c4C[C@@H](C)N3CC(C)(C)F)s2)C1` [Example I-54, (1S,3R)-2-(2-fluoro-2-methyl-propyl)-1-[5-[[1-(3-methoxypropyl)azetidin-3-yl]methyl]-2-thienyl]-3-methyl-1,3,4,9-tetrahydropyrido[3,4-b]indole], for which the “Activity” value was “+ (estrogen receptor agonism having (i) at least 80% increase in the E2-normalized signal in the AP assay (agonist mode) and (ii) no more than 80% reduction in the E2-normalized signal in the AP assay (antagonist mode))”.
The value for `C[C@@H]1Cc2c([nH]c3ccccc23)[C@@H](c2sc(CC3CN(CCCF)C3)cc2F)N1CC(F)(F)CO` [Example I-55, 2,2-difluoro-3-[(1S,3R)-1-[3-fluoro-5-[[1-(3-fluoropropyl)azetidin-3-yl]methyl]-2-thienyl]-3-methyl-1,3,4,9-tetrahydropyrido[3,4-b]indol-2-yl]propan-1-ol] was “+++ (estrogen receptor antagonism (i) with pIC50 greater than 7.5 and at least a 10% reduction in the E2-normalized signal in the AP assay (antagonist mode); and no more than 10% increase in E2-normalized signal in the AP assay (agonist mode))”.
The value for `C[C@@H]1Cc2c([nH]c3ccccc23)[C@@H](c2ccc(CC3CN(CCC#N)C3)s2)N1CC(C)(C)F` [Example I-56, 3-[3-[[5-[(1S,3R)-2-(2-fluoro-2-methyl-propyl)-3-methyl-1,3,4,9-tetrahydropyrido[3,4-b]indol-1-yl]-2-thienyl]methyl]azetidin-1-yl]propanenitrile] was “++ (estrogen receptor antagonism having (i) between 10% and 80% increase in the E2-normalized signal in the AP assay (agonist mode) and (ii) between 10% and 80% reduction in the E2-normalized signal in the AP assay (antagonist mode))”.
